The test system of one data set is zebrafish embryos. The data set is described as follows: Zebrafish embryo development. It counts as in vivo. As for the experimental part: Zebrafish used for o-dianisidine staining of red blood cells in DMSO and MitoBloCK-6 treated fish were albino lines generated from crosses of TL and TU fish. Line AB were injected with the ALR morpholino. Lines were maintained in a 14-hr light/10-hr dark cycle and mated for one hour to obtain synchronized embryonic development. […] Following treatment, embryos were imaged using a Leica MZ16F fluorescent stereoscope (TexasRed filter set) at 5× magnification. […] Embryos were allowed to mature to 2 dpf and then imaged like the MitoBloCK-6 treated embryos; embryos were imaged at day 2 because of concerns with morpholino dilution. Images were resized to 300 dpi without resampling using Adobe Photoshop software.

The next data set has as its system HSF1 hESCs. Description: Assays in human embryonic stem cells (HSF1). It counts as cell-based. As to conditions: 20 μM; alkaline phosphatase staining. As for the experimental part:
Human embryonic stem cell (hESCs) line hSF1 was cultured in Stem Pro SFM (Gibco) supplemented with 10 ng/ml bFGF on Matrigel (BD Biosciences) coated plates under 5% CO2, 95% air. Differentiation involved culturing cells in Stem Pro SFM with 10 μM retinoic acid (Acros Organics) for 4 days. Cells were treated with the specific concentration of the compounds or 1% DMSO as a control. For the induction of apoptosis, cells were exposed to 20 μM actinomycin D (Sigma) with or without 100 μM z-VAD-FMK (MP Biomedical). Following treatment, cells were fixed with 3.7% formaldehyde for indirect immunofluorescence study or lysed with Triton buffer (25 mM Tris-HCl pH 7.5, 150 mM NaCl, 1% Triton X-100, 1 mM EDTA) for analysis by SDS-PAGE. Bright field images were acquired with Exi Blue (QImaging). Immunofluorescent images were acquired with a 63× oil immersion objective on an LSM 5 PASCAL Laser Scanning Microscope (Carl Zeiss). Antibodies against cyt c (BD Pharmingen), Tom20 (Santa Cruz), cleaved caspase-3 (Cell Signaling) and poly (ADP-ribose) polymerase (Cell Signaling) were purchased from the indicated vendors. Alkaline phosphatase activity staining was performed with the leukocyte alkaline phosphatase kit (Sigma) as per manufacturer's protocol. […]

Another data set concerns the target T1, ALR (Homo sapiens, UniProt P55789).
T1 construct: Recombinant long form ALR, residues 1 to 205, was purified under native conditions; made in house
The data set is described as follows: In vitro ALR activity, Amplex Red-HRP assay. It counts as biochemical.

In the next data set the test system is WT mitochondria. The data set is described as follows: In vitro import of AAC into wild-type mitochondria. The format is biochemical, yeast. The method, then: (§1) Prior to import into purified mitochondria, ^35S-methionine and cysteine labeled proteins were generated with TNT Quick Coupled Transcription/Translation kits (Promega) and plasmids carrying the gene of interest. Transcription of genes was driven by either a T7 or SP6 promoter. Import reactions were conducted according to established methods. After frozen mitochondria aliquots were thawed and added to the import buffer at a final concentration of 100 μg/mL, drug or DMSO vehicle was added as indicated. A final vehicle concentration of 1% was used in all experiments. Following 15 minute incubation at 25° C., import reactions were initiated by the addition of […] of translation mix. Aliquots were removed at intervals during the reaction timecourse and import was terminated with either cold buffer, 25 μg/mL trypsin, or a combination of both. If trypsin was added to digest unimported precursor protein, soybean trypsin inhibitor (STI) was subsequently added in excess after 15 minute incubation on ice. After a final recovery of by centrifugation (8,000×g, 5 minutes), mitochondria were disrupted in Laemmli sample buffer. Imports of membrane proteins (AAC, PiC, Tom40, Tim22, and Tim23) included a carbonate extraction step to remove proteins that had not inserted into the membrane (Koehler C M, et al. (1998), Science 279:369-373). […]

For the next data set, the system named is HeLa cells. The data set is described as follows: MTT cell viability assay in HeLa cells (MitoBloCK-1). It counts as cell-based. As to conditions: 25 μM and 50 μM, 24 hours. The method, then:
Measurements of cell viability/toxicity were made with a MTT based toxicology assay kit (Sigma-Aldrich). HeLa cells were grown in 24-well tissue culture dishes to 80% confluency. […] Following drug treatment, cells were rinsed with phosphate buffered saline and incubated with complete media with MTT solution supplement for additional 4 hours as described in manufacturer's protocols. This media was removed and 500 μL of MTT solubilization solution was added to dissolve the formazan crystals. The formazan absorbance was measured at OD=570 nm on a Wallac Victor plate reader (Perkin Elmer) along with a turbidity measurement at OD=630 nm. After turbidity subtraction, the percent viability of each cell sample was calculated as: [(absorbance of vehicle treated cells−absorbance of drug treated cells)/(absorbance of vehicle treated cells)]×100.

The test system of a further data set is Tim9-Tim10 complex. Description: Crosslinking and immunoprecipitation of AAC with Tim9. The format is biochemical, yeast. The following applies: 25 μM MitoBloCK-1; BMH crosslinker. As for the experimental part:
Crosslinking and immunoprecipitation experiments were derived from procedures previously utilized (3) with the inclusion of MitoBloCK-1 or DMSO. Following import, a portion of the reaction was subjected to crosslinking with 0.5 mM bis-maleimidohexane (BMH) for 30 minutes on ice. After quenching crosslinking reactions with 1 mM β-mercaptoethanol, a fraction of each sample was subjected to immunoprecipitation with polyclonal antibodies against either Tim9, Tom22, or Tom40. For each immunoprecipitation, 20 μL of antisera was bound to […], of protein A-sepharose slurry according to established protocols (Murphy M P, et al., (2001), Mol Cell Biol 21:6132-6138).

Data set [1] relates to tim12-1 mutant mitochondria. Description: In vitro import of AAC into tim12-1 mutant mitochondria. The format is biochemical, yeast. As for the experimental part: as §1

Here are results for 2 compounds from patent US10758513B2, “Modulators of mitochondrial protein import” (THE REGENTS OF THE UNIVERSITY OF CALIFORNIA, priority 2011, dated 2020).

The term IC50 denotes the concentration that gives 50% inhibition. Higher therefore signals weaker potency.

Molecules are shown by their SMILES. “Also recorded” adds a separate entry of the source. A value given as a limit tells only on which side of the number the result lay.

T1 sequence (P55789 whole entry, the tested form may be a part): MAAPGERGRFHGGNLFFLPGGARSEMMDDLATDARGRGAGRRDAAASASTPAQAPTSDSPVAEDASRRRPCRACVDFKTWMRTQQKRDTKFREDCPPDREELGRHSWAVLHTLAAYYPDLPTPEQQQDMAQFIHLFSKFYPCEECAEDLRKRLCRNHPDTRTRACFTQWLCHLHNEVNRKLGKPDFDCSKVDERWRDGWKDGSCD

`Oc1c(Cl)cc(Cl)cc1/C=N/c1ccc(Nc2ccccc2)cc1` [MitoBloCK-6]: the toxicity to fish result in the data set with zebrafish embryos (concentrations higher than 2.5 μM) is on record as “toxic to the fish”. Moreover, the decreased heart rate in the data set on zebrafish embryos (embryos treated with MitoBloCK-6 or ALR morpholino) was determined as 50%. The “time at which hESC viability started to decline” value in the data set with HSF1 hESCs was over 5 h. On ALR, this compound came in with an IC50 of 700 nM.

In the case of `NC(=S)N/N=C/c1c(O)c(Br)cc2oc3c(c12)CCCC3` [MitoBloCK-1], the “import of AAC into WT mitochondria” value with WT mitochondria was “did not inhibit import; also recorded: does not inhibit AAC import”. In addition, the “cell viability (MTT)” value with HeLa cells is listed as “significantly decreased in a dose-responsive manner”. For the same compound, in the data set on Tim9-Tim10 complex, the “crosslinked Tim9-AAC product after immunoprecipitation” value is reported as “decreased”. Also, in data set [1], the “import of AAC into tim12-1 mutant mitochondria” value is “did not inhibit the import of AAC”.
